Assays:
[1] = tested on: HCV RNA replication in Huh-7 cells containing HCV sub-genomic replicons (Ava.5); assay: Inhibition of HCV RNA replication (replicon cells, RT and Q-PCR, normalised to GADPH); settings: for EC50: Hepatitis C virus, 24 h, read-out: EC50 value (effective concentration at which HCV RNA replication was inhibited by 50%)
Protocol: Huh-7 cells containing HCV sub-genomic replicons (Ava.5) were maintained in DMEM supplemented with 10% heat-inactivated FCS in a humidified atmosphere containing 5% of CO2. The medium also contained 1 mg/mL G418 (an aminoglycosidic antibiotic agent obtained from Promega, WI) as a selective pressure for the maintenance of HCV replicon's RNA replication. […] Cells were treated with sesquiterpene lactones and control compounds at various concentrations. Then, cells were harvested after 24 hr of the treatment. Subsequently, total cellular RNA's were extracted and quantified as follows.
Total RNA of cells was extracted using RNeasy Mini Kit (QIAGEN). The concentration of total RNA was measured by absorption at 260 nm. […] RNA was added with RNase-free ddH2O to a final volume of 10.5 μL and denatured for 10 min at 65° C. Reverse transcription (RT) reactions were carried out at 42° C. for 1 hr using Expand-RT (Roche Biochemicals, Mannheim, Germany) in a total volume of 20 μL containing a previously denatured primer-RNA mixture, 1 mM each of deoxynucleotide triphosphates (dNTPs), 50 units reverse transcriptase, and 20 units RNase inhibitor (Promega, Madison, Wis.).
Quantitative PCR (Q-PCR) was carried out by LightCycler-DNA Master using SYBR Green 1 for real-time detection of double-stranded DNA (dsDNA) (Roche Diagnostics GmbH, Mannheim, Germany). The intensity of fluorescence was recorded versus PCR cycle numbers and the relative amounts of HCV RNA were calculated corresponding to the standard curve. The standard curve was derived from five serial dilutions of reference DNA, the corresponding cDNA of HCV RNA, under criteria recommended by the supplier.
The relative copy numbers HCV RNA and a house-keeping gene, glyceraldehyde-3-phosphate dehydrogenase (GADPH), were determined by Q-PCR utilizing the following primer sets:
PCR was performed as followed: (i) denaturing conditions: 95° C., 60 sec; (ii) amplification conditions: ramp to 95° C., 0 sec; 64° C., 10 sec; 72° C., 10 sec. The specificity of an amplification reaction was determined by performing a melting curve analysis with a temperature range from 65° C. to 95° C.
HCV RNA copy numbers were divided by their corresponding GADPH copy numbers in the same sample for normalization. Effect of sesquiterpene lactones on HCV RNA replication was represented by “relative copy number,” which was obtained by comparing HCV RNA copy numbers with sesquiterpene lactones treatment to HCV RNA copy numbers without sesquiterpene lactones treatment. The latter was designated as 100%. All measurements were performed in triplicates to reach statistical significance.

[2] = tested on: Huh-7 cells containing HCV sub-genomic replicons (Ava.5); assay: Inhibition of cell growth (MTS cell viability / cytotoxicity assay); settings: Hepatitis C virus, read-out: IC50 value (concentration at which cell growth was inhibited by 50%)
Protocol: Huh-7 cells containing HCV sub-genomic replicons (Ava.5) were provided by Apath, LLC. […] Cells were maintained in Dulbecco's modified Eagle's medium (DMEM) supplemented with 10% fetal calf serum (FCS) in a humidified atmosphere containing 5% of CO2.
MTS and PMS, both in powder form, were purchased from Sigma or Promega. MTS was dissolved in PBS (2 mg/mL) and PMS (0.38 mg/mL) was dissolved in ddH2O as stock solutions. […] Prior to the assay, a 2 mL MTS/PMS solution containing MTS and PMS (20:1) was added to the cells with 8 mL of phenol red-free DMEM. The cell culture medium was then aspirated off, washed with PBS, and 100 μL of the MTS/PMS mixture was added into each well. After incubation at room temperature for 2 hr, optical densities of each sample were measured at OD490 with a 96-well microtiter plate reader. Data were obtained with six repeats for each treatment.

Molecule	EC50 [1] [nM]	further results
CC1=CCCC2(C)OC2C2OC(=O)C(CN(C)C)C2CC1 (centres unmarked) [Compound 44, 12-Dimethylaminomethyl-4,8-dimethyl-3,14-dioxa-tricyclo[9.3.0.02,4]tetradec-7-en-13-one]	≤ 3000	–
CCN(CC)CC1C(=O)OC2C1CCC(C)=CCCC1(C)OC21 (centres unmarked) [Compound 45, 12-Diethylaminomethyl-4,8-dimethyl-3,14-dioxa-tricyclo[9.3.0.02,4]tetradec-7-en-13-one]	≤ 3000	–
CC1=CCCC2(C)OC2C2OC(=O)C(CN3CCCC3)C2CC1 (centres unmarked) [Compound 46, 4,8-Dimethyl-12-pyrrolidin-1-ylmethyl-3,14-dioxa-tricyclo[9.3.0.02,4]tetradec-7-en-13-one]	≤ 3000	–
CC1=CCCC2(C)OC2C2OC(=O)C(CN3CCCCC3)C2CC1 (centres unmarked) [Compound 47, 4,8-Dimethyl-12-piperidin-1-ylmethyl-3,14-dioxa-tricyclo[9.3.0.02,4]tetradec-7-en-13-one]	≤ 3000	–
CC1=CCCC2(C)OC2C2OC(=O)C(CN3CCCCCC3)C2CC1 (centres unmarked) [Compound 48, 12-Azepan-1-ylmethyl-4,8-dimethyl-3,14-dioxa-tricyclo[9.3.0.02,4]tetradec-7-en-13-one]	≤ 3000	–
CC1=CCCC2(C)OC2C2OC(=O)C(CN3CCOCC3)C2CC1 (centres unmarked) [Compound 49, 4,8-Dimethyl-12-morpholin-4-ylmethyl-3,14-dioxa-tricyclo[9.3.0.02,4]tetradec-7-en-13-one]	≤ 6000	–
CC1=CCCC2(C)OC2C2OC(=O)C(CN3CCCC3C(=O)O)C2CC1 (centres unmarked) [Compound 50, 1-(4,8-Dimethyl-13-oxo-3,14-dioxa-tricyclo[9.3.0.02,4]tetradec-7-en-12-ylmethyl)-pyrrolidine-2-carboxylic acid]	≤ 3000	IC50 [2]: 8100 nM
CC1=CCCC2(C)OC2C2OC(=O)C(CSCC(N)C(=O)O)C2CC1 (centres unmarked) [Compound 53, 2-Amino-3-(4,8-dimethyl-13-oxo-3,14-dioxa-tricyclo[9.3.0.02,4]tetradec-7-en-12-ylmethylsulfanyl)-propionic acid]	≤ 6000	–
IFNα	–	inhibition of HCV RNA replication ([1]; 50 IU/1 mL of IFNα alone): 25%; inhibition of HCV RNA replication ([1]; 100 IU/mL of IFNα alone): 40%
